Several values for one entry are separate records, joined by “and”; a condition that tells them apart may be missing. Equal entries are not always repeated.
Molecular target: T1, HEDG-7 receptor (Homo sapiens, UniProt O95977, A140V/I378S)
T1 construct: it was desirable to isolate a full-length cDNA clone from a human source; expressed in transfected cells; host or cells: 293-EBNA cells (Invitrogen, Cat. R620-07), transiently transfected with pc3-hedg7#M10 (pcDNA3.1) and a 2x SRE-luciferase reporter
T1 sequence (O95977 1-384 A140V/I378S): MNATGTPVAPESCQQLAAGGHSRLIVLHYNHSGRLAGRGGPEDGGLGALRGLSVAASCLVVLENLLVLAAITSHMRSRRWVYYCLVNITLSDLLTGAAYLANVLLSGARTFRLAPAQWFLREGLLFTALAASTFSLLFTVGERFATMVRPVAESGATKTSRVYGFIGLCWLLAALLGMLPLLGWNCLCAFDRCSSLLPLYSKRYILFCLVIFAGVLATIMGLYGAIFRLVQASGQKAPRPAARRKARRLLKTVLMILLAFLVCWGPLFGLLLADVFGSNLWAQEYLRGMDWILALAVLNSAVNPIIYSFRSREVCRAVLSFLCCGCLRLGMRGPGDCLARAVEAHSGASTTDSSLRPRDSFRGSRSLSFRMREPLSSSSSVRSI
Assay: SRE-luciferase reporter gene response in 293-EBNA cells transfected with pc3-hedg7#M10
Format: cell-based
Settings: for Max. Fold: maximal luciferase fold response after subtracting endogenous response in pcDNA3-transfected cells; for Max. Fold / EMax (Percent) / HEDG7 activation (conclusion from dose response): 6 hr treatment; for EMax (Percent): relative efficacy; for EMax (Percent) / HEDG7 activation (conclusion from dose response) / SRE response (agonist specificity) / Rank (EMax): 293-EBNA cells transfected with pc3-hedg7#M10; for HEDG-7 agonist activity: summary statement in the description; for HEDG7 activation (conclusion from dose response): various concentrations; for SRE response (agonist specificity): 5 μM compound, serum-free medium; for Rank (EMax): rank of efficacy among sphingolipids tested
Procedure: Miniprep DNA from 4 clones was tested by cotransfection into 293-EBNA cells (Invitrogen, Cat. R620-07) with a 2× SRE-Luciferase reporter gene constructed in-house. We previously determined that these cells are an ideal expression host for edg receptors that respond to sphingolipids, since only a single edg gene is expressed (the LPA receptor subtype […], see U.S. Ser. No. 08/997,803), under normal culture conditions. […] Thus, the low endogenous expression of previously identified S1P receptor subtypes (edg-1, edg-3, edg-4/H218) and hedg7 (determined here) permits overexpression and functional analysis of these receptors in a relatively unresponsive cell background. From this preliminary cotransfection experiment, the expression clone pC3-hEdg7#M10 was chosen for further analysis. The nucleotide sequence and amino acid sequence of the hedg-7 sequence from the pC3-hEdg7#M10 clone are shown in FIG. 1B and FIG. 2B, respectively. Furthermore, an alignment of the hedg-7 amino acid sequence from the pC3-hEdg7#M10 clone and from the genomic DNA sequence is shown in FIG. 3B.
Transient transfection protocol for 293-EBNA:
1) 100 mm plates of 293-EBNA with a confluency of −80% were used for transfection.
2) SRE Reporter Gene Cotransfection: Expression plasmid ([…]) and reporter plasmid (2× SREtk-p4Luc-zeo; 0.5 μg) DNA samples were combined and diluted in 750 μl of DMEM/F12 (serum-free media) and 20 μl Plus Reagent (Lipofectamine Plus Kit, Life Technologies Cat. 10964-013), and incubated at room temperature for 15 min.
3) 30 μl Lipofectamine Reagent (Lipofectamine Plus Kit) was diluted in 750 μl DMEM/F12. The diluted Lipofectamine was then combined with the DNA/Plus mixture and incubated at RT for 15 min.
4) The 293-EBNA plates were washed once with PBS, and 5 ml DMEM/F12 was added to each plate.
5) DNA/Plus/Lipofectamine mixture was added to each plate of 293-EBNA cells. The plates were left for 3 hr at 37° C. in a 5% CO2 incubator.
6) The transfection medium was replaced with DMEM/F12 containing 10% FBS to recover overnight.
2) Transfected cells were harvested by trypsinization and 20,000 cells per well were plated in 96-well Blackview plates coated with poly D-lysine (Becton Dickinson Labware, Cat. 40640). Medium was DMEM/F12 plus 0.15% FBS. No. cells were plated in the outside wells of the 96-well plate. Cells were returned to the incubator for 48 hr.
1) Media was removed and cells treated with compounds diluted in serum-free DMEM/F12 media and the following treatments: a) Untreated: Serum-free DMEM/F12; b) 10 μM S1P in DMEM/F12 medium.
2) The cells were treated 5 hr in the 37° C. incubator.
3) Luclite kit (Packard; Cat. 6016911) was used for luciferase assay. All reagents were brought to room temperature before use.
4) Media was removed from each well. 50 μl 0.5M HEPES pH 7.8, 1 mM MgCl2, 1 mM CaCl2 was added to all wells of 96-well plate.
5) Luclite substrate was made up and 50 μl substrate was added to each well as specified in the kit.
6) Plates were incubated at room temperature for 30 min.
7) After incubation, plates were counted in a 12-detector Packard Top Count on a program without dark delay.
To determine the agonist specificity of HEDG-7, 293-EBNA cells were transfected with pc3-hedg7#M10, serum-deprived as described above, and treated in serum-free medium with 5 μM concentrations of SPC, S1P, LPA, lysophosphatiylcholine (LPC), edelfosine, psychosine, anandamide or 2-arachidonylglycerol. Control cells were treated with serum-free medium alone, and the SRE response was expressed as fold induction relative to this control. After 5 hr of treatment, luciferase activity was measured.
Transfection of a HEDG7 expression vector pc3-hedg7#M10 was carried out using Lipofectamine Plus (Life Technologies, Cat. 10964-013) according to manufacturer's instructions. The next day, transfected cells were harvested by trypsinization and replated at 30,000 cells per well in poly-(D)lysine-coated 96-well plates in medium containing 0.15% FBS. […]

Compound | Max. Fold [Fold] | EMax (Percent) [%] | SRE-Luciferase reporter response (10 μM S1P treatment, 5 hr, EBNA-293 cells transfected with pc3-hedg7#M10 and 2× SRE-Luciferase reporter, 2 independent experiments) | HEDG-7 agonist activity | HEDG7 activation (conclusion from dose response) | SRE response (agonist specificity) (5 hr) | Rank (EMax)
CCCCCCCCCCCCC/C=C/[C@@H](O)[C@@H](N)COP(=O)([O-])OCC[N+](C)(C)C [SPC] | 3.59 | 100 | – | agonists for HEDG-7 | full agonists | robustly induced expression of the SRE reporter gene | 1
CCCCC/C=C\C/C=C\C/C=C\C/C=C\CCCC(=O)NCCO [anadamide, anandamide] | – | – | – | do not act as HEDG-7 agonists | – | – | –
CCCCCCCCCCCCCCC[C@@H](O)[C@@H](N)COP(=O)(O)O [dihydro-S1P, dihydrosphingosine 1-phosphate] | – | – | – | do not act as HEDG-7 agonists | – | – | –
lysophosphatidylcholine [LPC] | – | – | – | – | – | failed to activate the SRE response | –

Second part, led by results:

Max. Fold [Fold] | EMax (Percent) [%] | SRE-Luciferase reporter response (10 μM S1P treatment, 5 hr, EBNA-293 cells transfected with pc3-hedg7#M10 and 2× SRE-Luciferase reporter, 2 independent experiments) | Compound | HEDG-7 agonist activity | HEDG7 activation (conclusion from dose response) | SRE response (agonist specificity) (5 hr) | Rank (EMax)
1.00 | 0 | – | CCCCCCCCCCCCC/C=C/[C@@H](O)C(N)CO[C@@H]1O[C@H](CO)[C@@H](O)[C@H](O)[C@@H]1O (stereo partly drawn) [Glucospychosine, glucopsychosine] | do not act as HEDG-7 agonists | failed to activate HEDG7 at nontoxic concentrations | – | –
1.00 | 0 | – | CCCCCCCCCCCCC/C=C/[C@@H](O)[C@@H](N)CO[C@@H]1O[C@H](CO)[C@H](O)[C@H](O)[C@H]1O [Psychosine, psychosine] | do not act as HEDG-7 agonists | failed to activate HEDG7 at nontoxic concentrations | – | –
3.59 | 100 | 5.3 fold and 6.5 fold | CCCCCCCCCCCCC/C=C/[C@@H](O)[C@@H](N)COP(=O)(O)O [S1P] | agonists for HEDG-7 | full agonists | robustly induced expression of the SRE reporter gene | 1
